Where two headings read alike, the source gives them in different places.

Assay [1] deals with Colo205 human colorectal cancer cell line. Nature of the assay: In vitro anti-cancer activity, Colo205 human colorectal cancer cells. Particulars: COLO 205. Type of assay: cell-based. Here is the method: (§1) The anti-cancer effect compound of formula (2) and compounds (3) and (4) were evaluated using the HT29 and Colo205 human colorectal cancer cell lines.
(§2) Human colorectal cancer cells HT29 and Colo205 were plated in a 96-well plate, at a concentration of 1×10^4-5 cells/well. The human colorectal cancer cells were incubated at 37° C. with 5% CO2 overnight. These cancer cells were washed three times with a serum free medium or a phosphate buffer solution (PBS) the next day. The compound of Formula (2) and Compounds (3) and (4) were added to the HT29 and Colo205 human colorectal cancer cells respectively. The experiment was performed three times and the average IC50 value was calculated.

The subject of assay [2] is HT29 human colorectal cancer cell line. The assay can be described thus: In vitro anti-cancer activity, HT29 human colorectal cancer cells. Format: cell-based. As to conditions: HT-29. Here is the method:
as §1, §2

Setting [3] is: Colo205 human colorectal cancer cells, average of three experiments, FIG. 7, read-out: IC50.
Setting [4] is: HT29 human colorectal cancer cells, average of three experiments, FIG. 6, read-out: IC50.

As for `C=C(C)C#Cc1c(C)c(OC)c(OC)c(OC)c1OC` [compound (3)], the figures for the IC50 in assay [1] (Homo sapiens) and in assay [2] (Homo sapiens) were 42 µM and 59 µM, respectively.
On to `C=C(C)C#Cc1c(C)c(OC)c2c(c1OC)OCO2` [formula (2), 1,2-methylenedioxy-3,6-bismethoxy-4-(3-methyl-3-alkene-1-butyne)-5-methylbenzene], for which the IC50 in assay [1] (setting [3]) was determined as 9 µM; in assay [2] (setting [4]), 66 µM.
Turning to `COc1cc(C)c(OC)c2c1OCO2` [Compound (4)], the IC50 in assay [1] (setting [3]) and in assay [2] (setting [4]) was more than 100 µM each time.

The values are drawn from patent publication US8759549B2, “Compound extracted from Antrodia cinnamomea and pharmaceutical composition comprising the same” (priority 2010, dated 2014).
